How the values were obtained:
Type in all cases: cell-based
[1] = test system: gastric cancer cell MKN-7; experiment: Cancer growth inhibitory activity, gastric cancer cell MKN-7; details: for Cancer growth inhibitory activity (average log GI50): gastric cancer cell MKN-7
colon cancer cell HT-29 = experiment: Cancer growth inhibitory activity, colon cancer cell HT-29; details: for Cancer growth inhibitory activity (average log GI50): colon cancer cell HT-29; for cancer growth inhibitory activity relative to oxaliplatin: colon cancer cells, stronger than oxaliplatin
[2] = test system: renal cancer cell RXF631L; experiment: Cancer growth inhibitory activity, renal cancer cell RXF631L; details: for Cancer growth inhibitory activity (average log GI50): renal cancer cell RXF631L
lung cancer cell DMS273 = experiment: Cancer growth inhibitory activity, lung cancer cell DMS273; details: for Cancer growth inhibitory activity (average log GI50): lung cancer cell DMS273; for cancer growth inhibitory activity relative to oxaliplatin: lung cancer cells, higher than oxaliplatin
39 kinds of cancer cells = experiment: In vitro cancer growth inhibitory activity, sulforhodamine B, panel of 39 cancer cell lines; details: average over 39 kinds of cancer cells, 2 days culture with sample
Method: The in vitro cancer growth inhibitory activity was assessed according to the method described in Jpn J Cancer Chemother, 24, 129 (1997) and Cancer Chemothr. Pharmacol., 52 Suppl 1, S74-79 (2003). Namely, a total of 39 different kinds of cancer cells at logarithmic growth phase were separately seeded into wells of 96 well plates, and incubated at 37° C. for 1 day. The cancer cells used were 5 kinds of breast cancer cells (HBC-4, BSY-1, HBC-5, MCF-7, MDA-MB-231), 6 kinds of glioma cancer cells (U251, SF-268, SF-295, SF-539, SNB-75, SNB-78), 5 kinds of colon cancer cells (HCC2998, KM-12, HT-29, HCT-15, HCT-116), 7 kinds of lung cancer cells (NCI-H23, NCL-H226, NCL-H522, NCL-H460, A549, DMS273, DMS114), 1 kind of melanoma cell (LOX-IMVI), 5 kinds of ovarian cancer cells (OVCAR-3, OVCAR-4, OVCAR-5, OVCAR-8, SK-OV-3), 2 kinds of renal cancer cells (RXF-631L, ACHN), 6 kinds of gastric cancer cells (St-4, MKN1, MKN7, MKN28, MKN45, MKN74), and 2 kinds of prostate cancer cells (DU-145, PC-3). Each sample solution was added to the wells on the following day, and culture was continued at 37° C. for another 2 days. Then, the degree of cell growth was determined by the colorimetric measurement using sulforhodamine B. The cancer growth inhibitory activity was assessed based on the average log GI50 (GI50 indicates the concentration required to inhibit 50% of cell growth) against 39 kinds of cancer cells.

Compound | Cancer growth inhibitory activity (average log GI50) [1] | Cancer growth inhibitory activity (average log GI50) (colon cancer cell HT-29) | cancer growth inhibitory activity relative to oxaliplatin (colon cancer cell HT-29) | Cancer growth inhibitory activity (average log GI50) [2] | Cancer growth inhibitory activity (average log GI50) (lung cancer cell DMS273) | cancer growth inhibitory activity relative to oxaliplatin (lung cancer cell DMS273) | Cancer growth inhibitory activity (average log GI50) (39 kinds of cancer cells) | cancer growth inhibitory activity relative to oxaliplatin ([1]; gastric cancer cells, stronger than oxaliplatin) | cancer growth inhibitory activity relative to oxaliplatin ([2]; renal cancer cells, stronger than oxaliplatin)
L-tartrate-bridged dinuclear 1R,2R-1,2-trans-cyclohexanediamine platinum(II) complex nitrate [[{Pt(R,R-dach)}2(μ-L-tartH)]NO3•4H2O] | −4.98 | −7.00 | about 100 times | −4.92 | −7.31 | about 20 times | −5.99 |  | 
L-tartrate-bridged dinuclear 1S,2S-1,2-trans-cyclohexanediamine platinum(II) complex nitrate [[{Pt(S,S-dach)}2(μ-L-tartH)]NO3•4H2O] |  |  |  |  |  |  | −5.36 |  | 
O=C1[O][Pt-2]2([NH2+]C3CCCC[C@H]3[NH2+]2)[O]C1=O (stereo partly drawn) [Oxaliplatin, oxalato(1R,2R-1,2-cyclohexanediamine)platinum(II), reference compound] | −4.68 | −4.91 |  | −4.13 | −6.06 |  | −5.03 |  | 
N[C@@H]1CCCC[C@H]1N.N[C@@H]1CCCC[C@H]1N.O.O.O.O.O=C([O-])[C@@H](O)[C@H](O)C(=O)[O-].O=[N+]([O-])[O-].[Pt+2].[Pt+2] (relative stereo) [[{Pt(R,R-dach)}2(μ-D-tartH)]NO3•4H2O, D-tartrate-bridged dinuclear 1R,2R-1,2-trans-cyclohexanediamine platinum(II) complex nitrate] | −6.02 | −5.96 | about 10 times | −6.03 | −7.46 | about 20 times |  | about 10 times | about 100 times
